Measured values as given in patent publication US20180201592A1, “2-AMINO-1,3,4-THIADIAZINE AND 2-AMINO-1,3,4-OXADIAZINE BASED ANTIFUNGAL AGENTS” (F2G Limited, priority 2015, published 2018).
Converted amounts (≈) assume the structure as drawn. Read-outs that look alike come from different tables or passages of the source.

Tests used:
[1] = tested on: A. fumigatus 210; experiment: Minimum inhibitory concentration, YAG medium; assay type: cell-based, Aspergillus fumigatus; details: banded MIC grade; for MIC: Aspergillus fumigatus, 210, YAG media
Summary of the method: (§1)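 Broth microdilution in YAG medium (1% glucose, 1% ammonium chloride, 0.5% yeast extract) with spore inocula of 1-2×10^4 cfu/mL and doubling dilutions typically spanning 50-0.05 mg/L. Plates were incubated 24 hrs at 35° C and read by OD 485 nm. MIC is the lowest concentration giving >70% growth inhibition versus drug-free control, in mg/L.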

[2] = tested on: Aspergillus flavus; experiment: Minimum inhibitory concentration, YAG medium; assay type: cell-based; details: banded MIC grade; for MIC: Aspergillus flavus, YAG media
Summary of the method: (§2)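 Compound from a 5 mg/mL DMSO stock was further diluted in sterile water, then serially doubled in water and plated with Aspergillus spp. spores. After 24 hrs at 35° C, growth was monitored by optical density at 485 nm; MICs are given in mg/L.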

[3] = tested on: Aspergillus terreus; experiment: Minimum inhibitory concentration, YAG medium; assay type: cell-based; details: banded MIC grade; for MIC: Aspergillus terreus, YAG media
Summary of the method: as §2

[4] = tested on: Aspergillus niger; experiment: Minimum inhibitory concentration, YAG medium; assay type: cell-based; details: banded MIC grade; for MIC: Aspergillus niger, YAG media
Summary of the method: as §2

[5] = tested on: A. terreus 49; experiment: Minimum inhibitory concentration, YAG medium; assay type: cell-based, Aspergillus terreus; details: banded MIC grade; for MIC: Aspergillus terreus, 49, YAG media
Summary of the method: as §2

[6] = tested on: C. albicans; experiment: Minimum inhibitory concentration, RPMI medium; assay type: cell-based; details: banded MIC grade; for MIC: Candida albicans, RPMI media
Summary of the method: (§3)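 Compound stock was made at 5 mg/mL in DMSO, diluted in sterile water and serially doubled in water, then tested in RPMI 1640 medium. Plates were incubated 24-48 hrs at 35° C, and growth was scored as optical density at 485 nm.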

[7] = tested on: C. tropicalis; experiment: Minimum inhibitory concentration, RPMI medium; assay type: cell-based; details: banded MIC grade; for MIC: Candida tropicalis, RPMI media
Summary of the method: as §3

[8] = tested on: C. parapsilosis; experiment: Minimum inhibitory concentration, RPMI medium; assay type: cell-based; details: banded MIC grade; for MIC: Lodderomyces parapsilosis, RPMI media
Summary of the method: as §3

[9] = tested on: Aspergillus fumigatus; experiment: Minimum inhibitory concentration, YAG medium; assay type: cell-based; details: banded MIC grade; for MIC: Aspergillus fumigatus, YAG media
Summary of the method: as §1

[10] = read-out: MIC grade C. ALBICANS
[11] = read-out: MIC grade, C. ALBICANS, RPMI media
[12] = read-out: MIC grade C. PARAPSILOSIS
[13] = read-out: MIC grade, C. PARAPSILOSIS, RPMI media

SMILES	MIC grade, A. FUMIGATUS 210, YAG media [1]	MIC grade, A. FLAVUS, YAG media [2]	MIC grade, A. TERREUS, YAG media [3]	MIC grade, A. NIGER, YAG media [4]	MIC grade, A. TERREUS 49, YAG media [5]	MIC grade, C. ALBICANS, RPMI media [6]	MIC grade, C. TROPICALIS, RPMI media [7]	MIC grade, C. PARAPSILOSIS, RPMI media [8]	MIC grade, A. FUMIGATUS, YAG media [9]	MIC [1] [µg/mL]	MIC [2] [µg/mL]	MIC [3] [µg/mL]	MIC [4] [µg/mL]	MIC [5] [µg/mL]	MIC [6, 10] [µg/mL]	MIC [6, 11] [µg/mL]	MIC [7] [µg/mL]	MIC [8, 12] [µg/mL]	MIC [8, 13] [µg/mL]	MIC [9] [µg/mL]
NC1=NN=C(CCOCCCc2ccccc2)CS1	4 (4: <0.2 mg/L)	4 (4: <0.2 mg/L)	4 (4: <0.2 mg/L)	4 (4: <0.2 mg/L)	4 (4: <0.2 mg/L)	4 (4: <1 mg/L)	3 (3: 1-5 mg/L)	4 (4: <1 mg/L)	4 (4: <0.2 mg/L)	–	–	–	–	–	–	–	–	–	–	–
CCCCCOc1ccc(CCC2=NN=C(N)SC2)cc1	1 (1: ≥5 mg/L)	3 (3: 0.2-1 mg/L)	2 (2: 1-5 mg/L)	3 (3: 0.2-1 mg/L)	3 (3: 0.2-1 mg/L)	1 (1: ≥20 mg/L)	3 (3: 1-5 mg/L)	3 (3: 1-5 mg/L)	1 (1: ≥5 mg/L)	–	–	–	–	–	–	–	–	–	–	–
NC1=NN=C(CCCCOCc2ccccc2)CS1	4 (4: <0.2 mg/L)	4 (4: <0.2 mg/L)	4 (4: <0.2 mg/L)	4 (4: <0.2 mg/L)	4 (4: <0.2 mg/L)	4 (4: <1 mg/L)	4 (4: <1 mg/L)	4 (4: <1 mg/L)	4 (4: <0.2 mg/L)	–	–	–	–	–	–	–	–	–	–	–
CCc1cccc(OCCCCCC2=NN=C(N)SC2)c1	4 (4: <0.2 mg/L)	4 (4: <0.2 mg/L)	4 (4: <0.2 mg/L)	4 (4: <0.2 mg/L)	4 (4: <0.2 mg/L)	4 (4: <1 mg/L)	4 (4: <1 mg/L)	4 (4: <1 mg/L)	4 (4: <0.2 mg/L)	–	–	–	–	–	–	–	–	–	–	–
CCCCOC(=O)c1ccc(C2=NN=C(N)SC2)cc1	3 (3: 0.2-1 mg/L)	3 (3: 0.2-1 mg/L)	2 (2: 1-5 mg/L)	3 (3: 0.2-1 mg/L)	2 (2: 1-5 mg/L)	1 (1: ≥20 mg/L)	1 (1: ≥20 mg/L)	1 (1: ≥20 mg/L)	3 (3: 0.2-1 mg/L)	–	–	–	–	–	–	–	–	–	–	–
CN1N=C(N)SC=C1c1ccc(C#N)cc1 [4-(2-amino-4-methyl-1,3,4-thiadiazin-5-yl)benzonitrile]	–	–	–	–	–	–	–	–	–	< 0.2	< 0.2	< 0.2	< 0.2	< 0.2	< 1	1 to 5 (≈ 4.34 to 21.7 µM)	5 to 20 (≈ 21.7 to 86.8 µM)	1 to 5 (≈ 4.34 to 21.7 µM)	1 to 5 (≈ 4.34 to 21.7 µM)	0.2 to 1 (≈ 0.868 to 4.34 µM)
COCCCCCN1N=C(N)SC=C1C [4-(5-methoxypentyl)-5-methyl-1,3,4-thiadiazin-2-amine]	–	–	–	–	–	–	–	–	–	1 to 5 (≈ 4.36 to 21.8 µM)	1 to 5 (≈ 4.36 to 21.8 µM)	1 to 5 (≈ 4.36 to 21.8 µM)	≥ 5	1 to 5 (≈ 4.36 to 21.8 µM)	≥ 20	≥ 20	≥ 20	≥ 20	5 to 20 (≈ 21.8 to 87.2 µM)	≥ 5
Cc1ccc(C2=CSC(N)=NN2C)cc1 [4-methyl-5-(p-tolyl)-1,3,4-thiadiazin-2-amine]	–	–	–	–	–	–	–	–	–	< 0.2	0.2 to 1 (≈ 0.912 to 4.56 µM)	< 0.2	0.2 to 1 (≈ 0.912 to 4.56 µM)	< 0.2	< 1	5 to 20 (≈ 22.8 to 91.2 µM)	≥ 20	≥ 20	1 to 5 (≈ 4.56 to 22.8 µM)	< 0.2
CN1N=C(N)SC=C1c1ccc(Cl)c(Cl)c1 [5-(3,4-dichlorophenyl)-4-methyl-1,3,4-thiadiazin-2-amine]	–	–	–	–	–	–	–	–	–	1 to 5 (≈ 3.65 to 18.2 µM)	≥ 5	1 to 5 (≈ 3.65 to 18.2 µM)	1 to 5 (≈ 3.65 to 18.2 µM)	0.2 to 1 (≈ 0.729 to 3.65 µM)	5 to 20 (≈ 18.2 to 72.9 µM)	≥ 20	≥ 20	≥ 20	≥ 20	1 to 5 (≈ 3.65 to 18.2 µM)
CCCCOc1ccc(C2=CSC(N)=NN2C)cc1 [5-(4-butoxyphenyl)-4-methyl-1,3,4-thiadiazin-2-amine]	–	–	–	–	–	–	–	–	–	< 0.2	< 0.2	0.2 to 1 (≈ 0.721 to 3.6 µM)	< 0.2	0.2 to 1 (≈ 0.721 to 3.6 µM)	1 to 5 (≈ 3.6 to 18 µM)	≥ 20	1 to 5 (≈ 3.6 to 18 µM)	< 1	1 to 5 (≈ 3.6 to 18 µM)	< 0.2
CN1N=C(N)SC=C1c1ccc(Cl)cc1 [5-(4-chlorophenyl)-4-methyl-1,3,4-thiadiazin-2-amine]	–	–	–	–	–	–	–	–	–	< 0.2	< 0.2	< 0.2	< 0.2	< 0.2	1 to 5 (≈ 4.17 to 20.9 µM)	1 to 5 (≈ 4.17 to 20.9 µM)	5 to 20 (≈ 20.9 to 83.4 µM)	< 1	< 1	< 0.2
COc1ccc(C2=CSC(N)=NN2C)cc1 [5-(4-methoxyphenyl)-4-methyl-1,3,4-thiadiazin-2-amine]	–	–	–	–	–	–	–	–	–	< 0.2	< 0.2	< 0.2	< 0.2	< 0.2	< 1	< 1	1 to 5 (≈ 4.25 to 21.2 µM)	< 1	< 1	< 0.2
CN1N=C(N)SC=C1c1cc2ccccc2o1 [5-(benzofuran-2-yl)-4-methyl-1,3,4-thiadiazin-2-amine]	–	–	–	–	–	–	–	–	–	0.2 to 1 (≈ 0.815 to 4.08 µM)	1 to 5 (≈ 4.08 to 20.4 µM)	0.2 to 1 (≈ 0.815 to 4.08 µM)	1 to 5 (≈ 4.08 to 20.4 µM)	0.2 to 1 (≈ 0.815 to 4.08 µM)	5 to 20 (≈ 20.4 to 81.5 µM)	≥ 20	≥ 20	5 to 20 (≈ 20.4 to 81.5 µM)	≥ 20	1 to 5 (≈ 4.08 to 20.4 µM)
CCCCCCCC1=CSC(N)=NN1 [5-heptyl-4~{H}-1,3,4-thiadiazin-2-amine]	4 (4: <0.2 mg/L)	4 (4: <0.2 mg/L)	4 (4: <0.2 mg/L)	4 (4: <0.2 mg/L)	3 (3: 0.2-1 mg/L)	3 (3: 1-5 mg/L)	3 (3: 1-5 mg/L)	3 (3: 1-5 mg/L)	4 (4: <0.2 mg/L)	–	–	–	–	–	–	–	–	–	–	–
NC1=NN=C(c2ccccc2)CS1 [5-phenyl-6~{H}-1,3,4-thiadiazin-2-amine]	3 (3: 0.2-1 mg/L)	3 (3: 0.2-1 mg/L)	3 (3: 0.2-1 mg/L)	3 (3: 0.2-1 mg/L)	3 (3: 0.2-1 mg/L)	1 (1: ≥20 mg/L)	1 (1: ≥20 mg/L)	1 (1: ≥20 mg/L)	3 (3: 0.2-1 mg/L)	–	–	–	–	–	–	–	–	–	–	–
CCOC(=O)c1ccc(C2=CSC(N)=NN2C)cc1 [ethyl 4-(2-amino-4-methyl-1,3,4-thiadiazin-5-yl)benzoate]	–	–	–	–	–	–	–	–	–	< 0.2	< 0.2	< 0.2	0.2 to 1 (≈ 0.721 to 3.61 µM)	0.2 to 1 (≈ 0.721 to 3.61 µM)	< 1	1 to 5 (≈ 3.61 to 18 µM)	1 to 5 (≈ 3.61 to 18 µM)	< 1	< 1	< 0.2
